Experimental data as given in patent US6215002A, “Pyrrolopyrrolone derivatives as inhibitors of neutrophil elastase” (priority 1996, dated 2001).
Structures can show the parent of a compound that is named as a salt.

How the values were obtained:
[1] = target: T1, human neutrophil elastase (Homo sapiens, UniProt P08246); test: In vitro assay of human neutrophil elastase (HNE); assay type: biochemical; conditions: 118 nM purified human neutrophil elastase, pH 8.6, 15 min incubation at 30° C., MeO-succinyl-alanyl-alanyl-prolyl-valyl-p-nitroanilide substrate; read-out: HNE IC50
T1 sequence (P08246 30-267): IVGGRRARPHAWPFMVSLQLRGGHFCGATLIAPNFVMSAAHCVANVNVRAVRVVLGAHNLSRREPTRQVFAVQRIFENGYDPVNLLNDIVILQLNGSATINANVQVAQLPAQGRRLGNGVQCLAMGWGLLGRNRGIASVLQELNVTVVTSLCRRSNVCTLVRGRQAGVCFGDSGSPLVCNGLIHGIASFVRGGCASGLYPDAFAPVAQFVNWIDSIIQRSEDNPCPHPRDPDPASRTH
Summary of the method: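 Residual activity was taken as the 10 min rate of absorbance rise at 405 nm after adding 0.6 mM MeO-succinyl-AAPV-p-nitroanilide. Curve fitting of activity against concentration gave IC50.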

Intracellular elastase = test: Oral in vivo model using IL-8 induced lung infiltrates for the assessment of intracellular elastase inhibition (hamster test); conditions: effective dose of less than 40 mg/kg, IL-8 intratracheal
Summary of the method: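 Fasted adult hamsters (n=4) given compound orally in water, with intratracheal 1 ug recombinant human IL-8; sacrificed 6 h later. Neutrophils from lung lavage and femoral bone marrow sonicated, granules disrupted, and elastase measured, with myeloperoxidase used to normalise for neutrophil recovery.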

SMILES	IC50 [1]	duration of effect (Intracellular elastase)
CC(C)[C@H]1C(=O)N(S(C)(=O)=O)[C@H]2CCN(C(=O)c3ccc(CNC4CC4)cc3)[C@H]12.Cl (relative stereo) [Example 180, rel-(3R,3aR,6aS)-4(4-Cyclopropylaminomethyl-benzoyl)-3-isopropyl-1-methanesulfonyl-hexahydro-pyrrolo[3,2-b]pyrrol-2-one hydrochloride]	42 nM	at least 6 hours
CC(C)[C@H]1C(=O)N(S(C)(=O)=O)[C@H]2CCN(C(=O)/C=C/CN3CCN(C)CC3)[C@H]12.Cl (relative stereo) [Example 143, rel-(3R,3aR,6aS)-3-Isopropyl-1-methanesulfonyl-4-[4-(4-methyl-piperazin-1-yl)-but-2E-enoyl]-hexahydro-pyrrolo[3,2-b]pyrrol-2-one hydrochloride]	33 nM	at least 6 hours
CC(C)[C@H]1C(=O)N(S(C)(=O)=O)[C@H]2CCN(C(=O)c3ccc(CN4CCC(C(N)=O)CC4)cc3)[C@H]12.Cl (relative stereo) [Example 187, rel-1-[4-(6R-Isopropyl-4-methanesulfonyl-5-oxo-hexahydro-(3aS,6aR)-pyrrolo[3,2-b]pyrrole-1-carbonyl)-benzyl]-piperidine-4-carboxylic acid amide hydrochloride]	43 nM	at least 6 hours
CC(C)[C@H]1C(=O)N(S(C)(=O)=O)[C@H]2CCN(C(=O)/C=C/CN3CCCC3)[C@H]12.Cl (relative stereo) [Example 146, rel-(3R,3aR,6aS)-3-Isopropyl-1-methanesulfonyl-4(4-pyrrolidin-1-yl-but-2E-enoyl)-hexahydro-pyrrolo[3,2-b]pyrrol-2-one hydrochloride]	34 nM	at least 6 hours
CC(C)[C@H]1C(=O)N(S(C)(=O)=O)[C@H]2CCN(C(=O)c3ccc(CN(C)C)o3)[C@H]12.Cl (relative stereo) [Example 251, rel-(3R,3aR,6aS)-4-(5-Dimethylaminomethyl-furan-2-carbonyl)-3-isopropyl-1-methanesulfonyl-hexahydro-pyrrolo[3,2-b]pyrrol-2-one hydrochloride]	43 nM	at least 6 hours
CC(C)[C@H]1C(=O)N(S(C)(=O)=O)[C@H]2CCN(C(=O)c3ccc(CN4CCCCCC4)cc3)[C@H]12 (relative stereo) [Example 178, rel-(3R,3aR,6aS)-4-(4-Azepin-1-ylmethyl-benzoyl)-3-isopropyl-1-methanesulfonyl-hexahydro-pyrrolo[3,2-b]pyrrol-2-one hydrochloride]	68 nM	at least 6 hours
